Data published in patent publication US20110166112A1, “METHOD FOR STIMULATING PLATELET PRODUCTION” (Eisai, Inc., priority 2009, published 2011).
Marks after values point to notes of the source that are not given here.

System: subjects with chronic ITP
Assay: Recurrence of thrombocytopenia upon discontinuation of E5501 (platelet count below 10,000/mm^3)
Assay type: in vivo, human
Conditions: for Recurrence of thrombocytopenia: Relation To E5501: assessed by the investigator
Method: Recurrence of Thrombocytopenia. Recurrence of thrombocytopenia has been previously reported and is of special interest in this population. Recurrence of thrombocytopenia was defined as a platelet count that decreased to below 10,000/mm^3 upon discontinuation of E5501. In this study, 9 subjects potentially met the criteria for recurrence of thrombocytopenia. Three were deemed serious; all 3 recovered.
All 9 cases occurred at an E5501 dose of 10 mg or above, and the majority (n=6/9) occurred within 2 weeks after discontinuation of E5501 (FIG. 3). However, recurrent thrombocytopenia was seen up to 4 weeks after the last dose of study drug.

O=C(Nc1nc(-c2cc(Cl)cs2)c(N2CCN(C3CCCCC3)CC2)s1)c1cnc(N2CCC(C(=O)O)CC2)c(Cl)c1 [E5501, 1-(3-chloro-5-{[4-(4-chlorothiophen-2-yl)-5-(4-cyclohexylpiperazin-1-yl)thiazol-2-yl]carbamoyl}pyridine-2-yl)piperidine-4-carboxylic acid] was tested, and the “Recurrence of thrombocytopenia: Outcome” value (Subject A, 20-30 mg, 1st entry) was “Recovered”, the “Recurrence of thrombocytopenia: Platelet Count” value (“Recurrence … Platelet Count” for short) (Subject A, 20-30 mg, 1st entry) was 3 K/mm^3 and the “Recurrence of thrombocytopenia: Serious” value (Subject A, 20-30 mg, 1st entry) was “No”. For the same molecule, the “Recurrence of thrombocytopenia: Study Days (No. Days Posttreatment)” value (from here on “Recurrence … (No. Days Posttreatment)”) (Subject A, 20-30 mg, 1st entry) was 193 (17) Days, the “Recurrence of thrombocytopenia: Relation To E5501” value (shortened to “Recurrence … Relation To E5501”) (Subject A, 20-30 mg, 1st entry) was “Not related” and the “Recurrence of thrombocytopenia: Outcome” value (Subject A, 20-30 mg, 2nd entry) was “Recovered”. For the same molecule, the “Recurrence … Platelet Count” value (Subject A, 20-30 mg, 2nd entry) was 6 K/mm^3, the “Recurrence of thrombocytopenia: Serious” value (Subject A, 20-30 mg, 2nd entry) was “No” and the “Recurrence … (No. Days Posttreatment)” value (Subject A, 20-30 mg, 2nd entry) was 235 (59) Days. The “Recurrence … Relation To E5501” value (Subject A, 20-30 mg, 2nd entry) was “Not related”, the “Recurrence of thrombocytopenia: Outcome” value (Subject A, 20-30 mg, 3rd entry) was “Recovered” and the “Recurrence … Platelet Count” value (Subject A, 20-30 mg, 3rd entry) was 4 K/mm^3. The “Recurrence of thrombocytopenia: Serious” value (Subject A, 20-30 mg, 3rd entry) was “No”, the “Recurrence … (No. Days Posttreatment)” value (Subject A, 20-30 mg, 3rd entry) was 249 (73) Days and the “Recurrence … Relation To E5501” value (Subject A, 20-30 mg, 3rd entry) was “Not related”. The “Recurrence … Platelet Count” value (Subject B, 10 mg) was 1 K/mm^3, the “Recurrence of thrombocytopenia: Serious” value (Subject B, 10 mg) was “No” and the “Recurrence … (No. Days Posttreatment)” value (Subject B, 10 mg) was 209 (28) Days. For the same molecule, the “Recurrence of thrombocytopenia: Outcome” value (Subject C, 10-20 mg) was “Recovered”, the “Recurrence … Platelet Count” value (Subject C, 10-20 mg) was 6 K/mm^3 and the “Recurrence of thrombocytopenia: Serious” value (Subject C, 10-20 mg) was “No”. For the same molecule, the “Recurrence … (No. Days Posttreatment)” value (Subject C, 10-20 mg) was 182 (14) Days, the “Recurrence … Relation To E5501” value (Subject C, 10-20 mg) was “Probably” and the “Recurrence of thrombocytopenia: Outcome” value (Subject D, 20 mg) was “Recovered”. The “Recurrence … Platelet Count” value (Subject D, 20 mg) was 1 K/mm^3, the “Recurrence of thrombocytopenia: Serious” value (Subject D, 20 mg) was “Serious” and the “Recurrence … (No. Days Posttreatment)” value (Subject D, 20 mg) was 193 (10) Days. The “Recurrence … Relation To E5501” value (Subject D, 20 mg) was “Not related”, the “Recurrence … Platelet Count” value (Subject E, 10 mg) was 8 K/mm^3 and the “Recurrence of thrombocytopenia: Serious” value (Subject E, 10 mg) was “No”. The “Recurrence … (No. Days Posttreatment)” value (Subject E, 10 mg) was 209 (7) Days, the “Recurrence of thrombocytopenia: Outcome” value (Subject F, 20 mg) was “Recovered” and the “Recurrence … Platelet Count” value (Subject F, 20 mg) was 8 K/mm^3. The “Recurrence of thrombocytopenia: Serious” value (Subject F, 20 mg) was “Serious”, the “Recurrence … (No. Days Posttreatment)” value (Subject F, 20 mg) was 192 (11) Days and the “Recurrence … Relation To E5501” value (Subject F, 20 mg) was “Not related”. For the same molecule, the “Recurrence of thrombocytopenia: Outcome” value (Subject G, 2.5-12.5 mg) was “Recovered”, the “Recurrence of thrombocytopenia: Serious” value (Subject G, 2.5-12.5 mg) was “Serious” and the “Recurrence … (No. Days Posttreatment)” value (Subject G, 2.5-12.5 mg) was 179 (13) Days. The “Recurrence … Relation To E5501” value (Subject G, 2.5-12.5 mg) was “Probably”, the “Recurrence … Platelet Count” value (Subject G, 2.5-12.5 mg, recorded 3 days before the event) was 16^g K/mm^3 and the “Recurrence of thrombocytopenia: Outcome” value (Subject H, 10-40 mg) was “Recovered”. For the same molecule, the “Recurrence … Platelet Count” value (Subject H, 10-40 mg) was 4 K/mm^3, the “Recurrence of thrombocytopenia: Serious” value (Subject H, 10-40 mg) was “No” and the “Recurrence … (No. Days Posttreatment)” value (Subject H, 10-40 mg) was 143 (16) Days. For the same molecule, the “Recurrence … Relation To E5501” value (Subject H, 10-40 mg) was “Not related”, the “Recurrence of thrombocytopenia: Outcome” value (Subject I, 10-20 mg, 1st entry) was “Recovered” and the “Recurrence … Platelet Count” value (Subject I, 10-20 mg, 1st entry) was 8 K/mm^3. For the same molecule, the “Recurrence of thrombocytopenia: Serious” value (Subject I, 10-20 mg, 1st entry) was “No”, the “Recurrence … (No. Days Posttreatment)” value (Subject I, 10-20 mg, 1st entry) was 181 (13) Days and the “Recurrence … Relation To E5501” value (Subject I, 10-20 mg, 1st entry) was “Not related”. The “Recurrence of thrombocytopenia: Outcome” value (Subject I, 10-20 mg, 2nd entry) was “Recovered”, the “Recurrence … Platelet Count” value (Subject I, 10-20 mg, 2nd entry) was 9 K/mm^3 and the “Recurrence of thrombocytopenia: Serious” value (Subject I, 10-20 mg, 2nd entry) was “No”. For the same molecule, the “Recurrence … (No. Days Posttreatment)” value (Subject I, 10-20 mg, 2nd entry) was 233 (65) Days, the “Recurrence … Relation To E5501” value (Subject I, 10-20 mg, 2nd entry) was “Not related” and the “recurrences of thrombocytopenia deemed serious” value (in vivo) was “Three”. The “recurrences of thrombocytopenia within 2 weeks after discontinuation of E5501” value (of 9 cases) was 6 n and the “subjects who potentially met the criteria for recurrence of thrombocytopenia” value (upon discontinuation, E5501 dose of 10 mg or above) was 9 subjects.
